# Results from US20170157102A1, “USE OF PERHEXILINE” (CONSIGLIO NAZIONALE DELLE RICERCHE, priority 2014, published 2017).
# Read-outs that look alike come from different tables or passages of the source.
# Assays:
# [1] = system: S. mansoni juvenile worms; conditions: at 8 days; previous report (Livia-Pica et al, 2004); cited from earlier work
# [2] = system: S. mansoni juvenile worms (4 weeks old); format: cell-based, Schistosoma mansoni; conditions: 10 μM overnight, at 5 days
# Experimental: (§1) FIG. 2. Juvenile worms (4 weeks old, S. mansoni) in vitro survival following overnight treatment with 10 μM PHX, 10 μM Gambogic Acid, 10 μM Praziquantel (PZQ) or DMSO (vehicle). Parasites death was assessed by optical examination each day using the following criteria: reduction of motility, tegumental damages and darker appearance. Data shown are the means of results of at least three experiments.
# (§2) Seven-eight male worms or 4-5 worm pairs were recovered under aseptic conditions from infected mice by perfusion of mesenteric veins at 28 days (juvenile) or 56-days post infection (adult pairs) or 2-4 months post-infection (adult males). After washing, the worms were transferred into a 35 mm plates containing 3 mL of DMEM complete worms media and incubated at 37° C. in a humid atmosphere containing 5% CO2 with drugs overnight. Next, the worms were washed 3 times with drug-free medium and were incubated for 5 days at 37° C./5% CO2 and monitored daily under a stereo microscope for mobility, tegumental damage, viability and egg output (worm pairs). The experiment was repeated at least three times.
# Juvenile worms (4 weeks old parasites) were also tested at the same conditions reported above. Following over night incubation of PHX (10 μM), viability of parasites was reduced by 80% after 5 days of observation (FIG. 2). […]
# S. mansoni worms = conditions: juvenile 4 weeks after infection vs adult 6 or 7 weeks, mice (Pica-Mattoccia et al., 2004); cited from earlier work
# [3] = system: adult parasites (schistosomes); conditions: treatment of adult parasites (Redman et al.); cited from earlier work
# S. mansoni = experiment: In vivo efficacy in mice infected with S. mansoni (total worm count, hepatic egg burden); conditions: two weeks after treatment
# Experimental: FIG. 3. Effect of PHX on total worm count (A) and egg burdens (B) in mice infected with S. mansoni. One-way analysis of variance (one-way Anova) was used to compare means of the samples. The p-values are indicated. PZQ (Praziquantel, oral administration, 500 mg/kg), PERHEX LOW (PHX, oral administration, 23 mg/kg), PERHEX HIGH (PHX, oral administration, 70 mg/kg).
# Female ICR (CD-1) outbred and C57BL/6, 4-7 weeks old mice (Harlan Laboratories) were housed under controlled conditions [(22±2)° C.; (65±15)% relative humidity; 12/12 h light/dark cycle]. The mice received standard food and water ad libitum. Female ICR (CD-1) outbred mice were infected transcutaneously with approximately 80 (for mixed infection) or 200 (single sex) S. mansoni cercariae for life cycle maintainance and in vitro worm assays. For in vivo experiments, C57BL/6 mice were infected with 140 cercariae and administered with selected compounds.
# C57B/L6 inbred female mice (5-6 weeks old) were divided in 4 groups of 7 animals each and treated with DMSO (control), PZQ or two dosages of PHX. All compounds were administered orally (vehicle is 2.5% Cremophor EL) 42 days post infection. The amount of PHX administered (23 mg/kg and 70 mg/kg) was guided by available information of therapeutic dose in use for angina treatment (Ashrafian H., 2007); PZQ was used at the standard dose (500 mg/Kg). Toxicity of compounds (e.g., death and behavioral changes) was assessed daily during and after treatment until the time of euthanasia. At 56 days post infection, mice were euthanized with an intraperitoneal injection of Tiletamina/Zolazepam ([…])+Xylazina (100 mg/kg) and adult worms perfused as described above.
# Compound efficacy in vivo, measured using a number of criteria, was compared to that of the anti-schistosomal drug, PZQ. The criteria include the numbers of male and female worms (total worm count) recovered by perfusion and hepatic egg burden (number of eggs in the liver). To recover eggs trapped in liver, whole livers from individual mice were excised, weighed and incubated in a 4% KOH solution over night at 37° C. Eggs were counted under a dissecting microscope as previously described (Cheever, A. W., 1968).
# Based on the strong in vitro effects of PHX against larvae, juvenile (4 weeks old) and adult worms, the in vivo efficacy of the drug was tested in mice infected with S. mansoni. Based on the previous cardiovascular studies of the drug (Ashrafian H., 2007), two different concentrations of PHX were used: a low dose (23 mg/Kg) and a high dose (70 mg/Kg). […] Two weeks after the treatment, mice were sacrificed and the total worm count and egg burden (number of eggs in the liver) were determined (FIG. 3). […]
# S. mansoni adult worms = experiment: microbe, parasite or virus in culture; format: cell-based, Schistosoma mansoni
# Experimental: as §1, with “1. Adult” for “2. Juvenile”, “(8” for “(4”
# as §2
# Male adult worms (7-8 worms/sample) obtained from infected mice were cultured at 37° C., 5% CO2 in DMEM complete medium (10% FBS) in presence of different concentrations of PHX (3-10 μM) and for variable time (12h to 5 days). For all experiments Gambogic Acid (1-10 μM) and PZQ (1-10 μM) were used as positive controls while DMSO was used as negative control. […] Parasites death was assessed by optical examination each day using the following criteria: reduction of motility, tegumental damages and darker appearance.
# [4] = cited from earlier work
# [5] = system: S. mansoni newly transformed schistosomula; experiment: CellTiterGlo luminescent viability assay on schistosomula; conditions: 24 h; for CC50: values of two independent experiments
# Experimental: Cercariae, shed from infected snails, were subsequently converted to schistosomula by mechanical transformation using an optimised version of the protocol of Brink et al., 1977 previously described (Protasio et al. 2013). Briefly, the cercarial suspension (approximately 50.000 cercariae) was placed in a glass 40 ml tube on ice for 60 minutes in order to reduce parasite motility. Tail detachment was obtained by shaking cercariae vigorously for approximately 30 seconds in a vortex mixer before passing these through a 22G syringe needle approximately 10-12 times. Next, the separation of heads/schistosomula and tails was obtained by placing the heads plus tails suspension on 4-5 ml of ice-cold 70% Percoll in tube and centrifugating (600×g) for 10 minutes at 4° C. Finally, the schistomula preparations were washed twice (with DMEM complete media lacking FBS) and microscope examination was used to assess the quantity and quality of purified schistosomula (less than 1% tails). Schistosomula were cultured at 37° C. in 6 wells tissue culture plates containing 3 ml schistosomula complete media in an atmosphere of 5% CO2 for 24 hr before any further experimental manipulations proceeded. Negligible parasite death occurred in this media during the 24 hr culturing period. Following this, schistosomula were aliquoted into flat-bottom 384-well black-sided for compound assays.
# Compounds are stored as solution of 100% DMSO at −20 ° C. under inert atmosphere. Intermediate storage microplates, in the 384 well/plate format, are prepared on demand and stored in the same controlled environment as the stock solutions. Intermediate microplate stored compounds are transferred to assay plates by the acoustic droplet ejection technology (ATS-100, EDC Biosystems USA) which ensures a safe, contactless, pre-dilution free delivery. The test set was transferred to 384 well, black, tissue culture treated destination plate. […]
# The plate set was let to incubate with the compounds at 37° C./5% CO2 for 24 hours. […] The readout, luminescence based, was carried out by a CCD based detector (ViewLux, PerkinElmer USA). […]
# [6] = system: S. mansoni adult worm pairs; experiment: Egg production of adult worm pairs in vitro; format: cell-based, Schistosoma mansoni; conditions: 5 μM overnight, vs DMSO control
# Experimental: as §2
# In order to test the effect of PHX on egg production, adult worm pairs were treated overnight using the sub lethal dose of 5 μM. Total number of eggs laid by female parasites was determined 3 and 6 days after the treatment. To do so, the medium containing the eggs was harvested and briefly centrifuged. The pellet containing the eggs was re-suspended in 500 μl of saline solution and the egg number was determined by microscopy analysis.
# [7] = HIGH dose 70 mg/Kg oral single dose
# [8] = LOW dose 23 mg/Kg oral single dose
smiles,measurement,setting,value
O=C(C1CCCCC1)N1CC(=O)N2CCc3ccccc3C2C1 (stereo not shown) [Praziquantel],survival of juvenile worms,[1],approximately 80%
same,survival rate of juvenile worms,[2],50%
same,ED50 against juvenile worms relative to adult worms,S. mansoni worms,at least 30 times
Cl.N [NH4Cl],rate of BODIPY FL C5-sphyngomyelin breakdown,[3],no decrease
CNCCCN1c2ccccc2CCc2ccccc21 [desipramine],rate of BODIPY FL C5-sphyngomyelin breakdown,[3],no decrease
"C1CCC(C(CC2CCCCN2)C2CCCCC2)CC1 (stereo not shown) [Perhexiline, 2-(2,2-dicyclohexylethyl)piperidine]",decrease in total worm counts,S. mansoni; [7],63%
same,reduction of egg burden (number of eggs in the liver),S. mansoni; [7],60%
same,decrease in total worm counts,S. mansoni; [8],35%
same,reduction of egg burden (number of eggs in the liver),S. mansoni; [8],50%
same,effect on viability of adult worms,S. mansoni adult worms; 3 μM,no effect
same,inhibition at 5 µM,"S. mansoni adult worms; Schistosoma mansoni, read-out: reduced viability of adult worms",~50%
same,viability of adult parasites,"S. mansoni adult worms; overnight incubation 10 μM, after 5 days",statistically significant decreased viability
same,rate of BODIPY FL C5-sphyngomyelin breakdown,[3],no decrease
same,inter-individual differences in apparent oral clearance,[4]; CYP2D6 polymorphisms,approximately 100 fold
same,plasma half-life,[4]; most subjects,24 to 48 h
same,plasma half-life,[4]; poor metabolizers (CYP2D6),up to 40 days
same,defined therapeutic range of plasma concentration,[4]; range that avoids hepatotoxicity and peripheral neuropathy (Horowitz et al 1986),0.15-0.6 mg 1^−1
same,CC50,"[5]; Schistosoma mansoni, read-out: CC50 of newly transformed schistosomula, 24 h, 0.019-50 μM, four parameter fit",9.56 µM
same,CC50,"[5]; read-out: CC50 of newly transformed schistosomula, 0.019-50 μM, four parameter fit",12.4 µM
same,cytotoxicity in the initial screen,"[5]; single concentration 10 μM, threshold 70% cytotoxicity, scaled DMSO 0% / gambogic acid 100%",positive compound
same,reduction in egg production,[6]; 3 days after treatment,around 60%
same,reduction in egg production,[6]; 6 days after treatment,around 60%
